Test results published in patent publication US5925549A, “Soluble 7-transmembrane domain G-protein-coupled receptor compositions and methods” (The Board of Trustees of the Leland Stanford Junior …, priority 1997, dated 1999).

Legend:
[1] = test system: immature male rats (testis growth); assay: Testis weight in immature male rats after 2 days of treatment; type: in vivo; settings: 21 days of age, GnRH antagonist 50 μg/rat, testes weighed two days after initial injection, untreated 192±28 mg
Procedure: Immature male rats (21 days of age, weighing between about 45 and 50 g) were injected subcutaneously (s.c.) every 6h for a period of 2 days with 1 ml conditioned media of SF9 cells (10^8 cells equivalent/injection) containing solubilized FSH receptor fragments prepared as described above. The concentration of soluble receptor protein in the injection volume was between about 30 and 100 μg/ml. The effective dose administered every 6 hours was therefore between […].
(§1) Two days after the initial injection, the testis were weighed and testis cell apoptosis was quantitated using a 3' end-labeling method (Tapanainen,et al., 1993). The effects of FBP were also assayed using in situ analysis of specific cell types undergoing apoptosis with the "APOTAG" kit (Oncor, Gaithersburg, Md.) as previously described (Billig, et al., 1995).
Some animals were treated with a potent gonadotropin releasing hormone (GnRH) antagonist (Org30850: Acetyl-D-parachloro-Phe (AcDpCl-Phe), D-parachloro-Phe (DpCl-Phe), D-Bal, DLys, DAla-amide; (AcDpCl)Phe1 - (DpCl)Phe2 - D-Bal3 - DLys6 -DAla10(amide) (SEQ ID NO:5; D refers to D (not L) amino acids); 50 μg/rat, FIG. 5C (ANT); Decker, et al., 1992) to suppress pituitary release of LH and FSH (Decker, et al., 1992) whereas others were treated with conditioned media of SF9 cells infected with wild type baculovirus. […]

rat testis cells = assay: Testis cell apoptosis, DNA fragmentation by 3' end-labeling and in situ analysis (Apotag kit); type: in vivo; settings: immature male rats; GnRH antagonist 50 μg/rat; 2 days; FIG. 5C; comparable to FBP-treated group
Procedure: as §1
Some animals were treated with a potent gonadotropin releasing hormone (GnRH) antagonist (Org30850: Acetyl-D-parachloro-Phe (AcDpCl-Phe), D-parachloro-Phe (DpCl-Phe), D-Bal, DLys, DAla-amide; (AcDpCl)Phe1 - (DpCl)Phe2 - D-Bal3 - DLys6 -DAla10(amide) (SEQ ID NO:5; D refers to D (not L) amino acids); 50 μg/rat, FIG. 5C (ANT); Decker, et al., 1992) to suppress pituitary release of LH and FSH (Decker, et al., 1992) whereas others were treated with conditioned media of SF9 cells infected with wild type baculovirus. In situ analysis of specific cell types undergoing apoptosis was performed using Apotag kit (Oncor, Gaithersburg, MD) as previously described (Billig, et al., 1995). Animal care was in accordance with institutional guidelines.

Acetyl-D-parachloro-Phe (AcDpCl-Phe), D-parachloro-Phe (DpCl-Phe), D-Bal, DLys, DAla-amide; (AcDpCl)Phe1 - (DpCl)Phe2 - D-Bal3 - DLys6 -DAla10(amide) [ANT]
testis weight [1]: 140 ± 18 mg | apoptotic DNA fragmentation in testis cells (rat testis cells): increases in apoptotic DNA fragmentation
